Consider three substances from patent EP0408371B1, “Hemoregulatory peptides” (SMITHKLINE BEECHAM CORPORATION, priority 1989, dated 1994).

Read-outs that look alike come from different tables or passages of the source. Square brackets hold non-standard residues; d marks the D form. Ends that are not written are not given here. pGlu = O=C1CC[C@@H](C(=O)O)N1

For test [1], the system named is human bone marrow stromal cell line, C6. The experiment in a line: Induction of colony stimulating activity by stromal cells; supernatant tested in soft agar assay (CFU-C). The conditions noted are these: 5% Supernatant, Lewis rat bone marrow cells. Type of test: cell-based. As for the experimental part:
The human bone marrow stromal cell line, C6, is grown to confluency in plastic tissue culture dishes in RPMI-1640 medium and 5% FBS. On the day prior to the experiment this medium is changed to DMEM without added serum. To these cultures, the compounds are added for one hour, then washed from the cultures. The medium is replaced with fresh DMEM and the cells are incubated for 24 hours at 37°C, 5% CO₂. After 24 hours the C6 cell culture supernatant is collected, sterile filtered, and frozen until it can be assayed for the presence of hematopoietic colony stimulating activity (CSA) as set forth below.
Bone marrow cells are obtained from Lewis rats. They are adjusted to 10⁶ cells/ml in DMEM without serum. A single later agar system utilizing the following is used: DMEM enriched with nutrients (NaHCO₃, pyruvate, amino acids, vitamins, and HEPES buffer); 0.3% Bacto agar, and 20% Lewis rat serum. To this are added dilutions of C6 cell line supernatant (10-2.5%) from above along with rat bone marrow cells (final concentration = 10⁵ cells/ml). The agar plates are incubated at 37°C, 5% CO₂ for 7-8 days. Colonies of proliferating bone marrow cells (CFU-C) are counted utilizing a microscope. The number of agar colonies counted is proportional to the amount of CSA present within the C6 bone marrow stromal cell line supernatant.

In another test the test system is human CFU-gm. Particulars: human CFU-gm in vitro; cited from earlier work.
The next test has as its system murine CFU-gm. Particulars: murine CFU-gm in vitro; cited from earlier work.
Test [2] relates to murine myelopoietic cells. The conditions noted are these: in vivo; cited from earlier work.
The test system of test [3] is myelopoietic cells. Particulars: in vitro; cited from earlier work.
For test [4], the system named is myelopoietic cells. The conditions noted are these: in vivo; cited from earlier work.

With (pGlu-Glu-Asp)₂-Sub-(Lys)₂ [Example 2], the “Hematopoietic Colony Stimulating Activity, Percent of Control” value is on record as 97% of Control in test [1] (Dose 0.01 ng/ml); 154% of Control in test [1] (Dose 0.1 ng/ml); 188% of Control in test [1] (Dose 1 ng/ml); 207% of Control in test [1] (Dose 10 ng/ml); 241% of Control in test [1] (Dose 100 ng/ml); 192% of Control in test [1] (Dose 1000 ng/ml).
Turning to “HP-5: oxidation product of pGlu-Glu-Asp-Cys-Lys, a dimer formed by disulfide bridges (EP-A-0267741) ([pGlu]EDCK; also: disulfide-linked dimer (oxidation product))”, the “colony formation of CFU-gm” value in the test with human CFU-gm and with murine CFU-gm was “strongly stimulates colony formation” in each case. Moreover, in test [2], the “effect on murine myelopoietic cells” value was “up regulates murine myelopoietic cells”.
For the substance pGlu-Glu-Asp-Cys-Lys ([pGlu]EDCK), the “effect on myelopoietic cells” value in the test on myelopoietic cells [3] and in the test on myelopoietic cells [4] was “selective inhibitory effect” in each case.
